Data reported in PMC4648528, “Interplay between Structure and Charge as a Key to Allosteric Modulation of Human 20S Proteasome by the Basic Fragment of HIV-1 Tat Protein” (PLoS ONE, 2015).
Read-outs that look alike come from different tables or passages of the source. Square brackets hold non-standard residues; d marks the D form. Ends that are not written are not given here. Peptide text beside a SMILES is read from it. Oic = O=C(O)[C@@H]1C[C@@H]2CCCC[C@@H]2N1; dOic = O=C(O)[C@H]1C[C@H]2CCCC[C@H]2N1; Tic = O=C(O)[C@@H]1Cc2ccccc2CN1; dTic = O=C(O)[C@H]1Cc2ccccc2CN1

Tests used:
human 20S proteasome [1] = tested on: T1, human 20S proteasome; test: Peptide degradation test with 20S proteasome (RP-HPLC); type: in vitro ADME
T1 construct: isolated from human erythrocytes (Enzo Life Sciences); purchased Enzo Life Sciences; host or cells: human erythrocytes
Protocol: Susceptibility of the designed modulators to degradation by the 20S proteasome was examined by reversed-phase high-performance liquid chromatography (S10 Fig). The compounds were dissolved in water or DMSO to 10 mM concentration and then diluted with 25 mM Tris buffer containing 0.25 mM EDTA (pH 8.0) to the final concentration of 1 mM. 2.5 μg of human 20S proteasome (Enzo Life Sciences) was added to the mixture, which then, after adjustment of its final volume to 100 μl, was incubated at 37°C for 3 h. The reaction was stopped by adding 5 μl of 10% aqueous trifluoroacetic acid. Next, 40 μl of the mixture, along with the control not containing the 20S, were injected onto C8 Kromasil column (4,6 x 250 mm, 100 Å, 5 μm). […]
incubation with the proteasome under standard conditions used in our tests. For comparison we also included the degradation profile of Tat1_A4-5,8-9, which was not able to inhibit the proteasome […]
(1 picture or pasted object on this page, not shown here)

human 20S proteasome [2] = target: T1, human 20S proteasome; test: Microscale thermophoresis with fluorescently labeled human 20S proteasome; type: binding; settings: for Kd: MST; for EC50: MST Hill fit, concentrations listed in nM, read-out: EC50, fitted value (Hill method)
Excerpt: Microscale thermophoresis detects changes in the mobility of protein molecules in temperature gradients generated by IR laser radiation. The thermophoretic effect is very sensitive to induced by a ligand binding alterations in the charge, size and/or the hydration shell of a studied protein [39]. Quantification of these changes is based on either intrinsic fluorophores such as tryptophan or covalently bound dyes. Titration of the selected peptides/peptidomimetics to a constant concentration of the fluorescently labeled human 20S proteasome allowed us to determine ligand dissociation constants (Kd), and systematically compare their binding affinity.
The human 20S proteasome was labeled using monolith NT^TM Protein Labeling Kit RED-NHS (NanoTemper Technologies), according to the protocol provided by the supplier. During the measurements concentration of the labeled protein was kept constant at 3 nM. […] The binding reactions were carried out in 50 mM Tris/HCl buffer containing 0.5 mM EDTA, pH 8.0 with an addition of sodium dodecyl sulfate at the final concentration of 0.005%. Measurements were performed in standard treated capillaries on a Monolith NT.115 system (NanoTemper Technologies). Capillaries were illuminated at 25°C with 80% LED power for 5 s. […] Fluorescence intensities were measured at 6–8 s and 34–36 s, and fluorescence intensity ratios of hot/cold were used as the assay readout. Kd values were determined using the internal evaluation software.

human 20S proteasome [3] = target: T1, human 20S proteasome; test: ChT-L peptidase activity of SDS-activated human 20S proteasome (SucLLVY-MCA); type: biochemical
Protocol: Influence of the designed peptides on catalytic properties of the 20S proteasome was tested using the proteasome at a final concentration of 1.5 nM, isolated from human erythrocytes (Enzo Life Sciences) and activated with 0.01% sodium dodecyl sulfate. Succinyl-Leu-Leu-Val-Tyr-4-methylcoumarin-7-amide (SucLLVY-MCA) was employed as a model fluorogenic substrate to determine the activity of ChT-L peptidase. All assays were performed in the 96-well plate format using a reaction volume of 100 uL. Tests were carried out in 50 mM Tris/HCl, pH 8.0 containing 0.5 mM ethylenediamine tetraacetic acid. Stock solutions of the substrates and the tested peptides were prepared by dissolution of the lyophilized compounds in dimethyl sulfoxide (DMSO). The content of DMSO never exceeded 3% of the final reaction volume. Compounds were tested in the concentration range of 0.05–10 μM. The substrate was added at 100 μM final concentration (1% of the volume). The release of an aminomethyl coumarin (AMC) group was followed by measuring fluorescence emission at 460 nm in 2 min. intervals for up to 60 min. at 37°C (Fluoroskan Ascent). The peptidolytic activity was calculated as nanomoles of the released AMC product per mg of CP per second. The half maximal inhibitory concentration expressed in μM concentration was calculated with SigmaPlot 12.3 where exponential equation estimates based on fitting of two or three logistic parameters were employed.

20S proteasome = settings: cited from earlier work
Excerpt: Intriguingly, we first identified the importance of structural dynamics of this peptide, when we compared the FTIR spectra collected in liquid and films. […] The best studied and shortest 11-residue PR11 may contain a structural turn and is hypothesized to bind at the outer edge of the proteasomal α ring. Another example is octa-arginine, inhibiting the proteasome peptidase activity in vitro with high- ...

[4] = ChT-L activity, average of repetitions, read-out: Calculated IC50, Average
[5] = ChT-L peptidase, 1.5 nM 20S from human erythrocytes activated with 0.01% SDS, 100 μM SucLLVY-MCA, 50 mM Tris/HCl pH 8.0, 0.5 mM EDTA, 37°C, mean (±SD), read-out: IC50
[6] = average of three repetitions, read-out: Kd, Average
[7] = ChT-L activity, Repetition 1, read-out: Calculated IC50

| Compound | IC50 (human 20S proteasome [3]; [4]) [µM] | IC50 (human 20S proteasome [3]; [5]) [µM] | other results |
| --- | --- | --- | --- |
| N=C(N)NCCC[C@H](NC(=O)CN)C(=O)N[C@@H](CCCCN)C(=O)N[C@@H](CCCCN)C(=O)N[C@@H](CCCNC(=N)N)C(=O)N[C@@H](CCCNC(=N)N)C(=O)N[C@@H](CCC(N)=O)C(=O)N[C@@H](CCCNC(=N)N)C(=O)N[C@@H](CCCNC(=N)N)C(=O)N[C@@H](CCCNC(=N)N)C(=O)N1CCC[C@H]1C(=O)N[C@@H](CO)C(=O)O [Tat1] | – | – | Degradation by the 20S proteasome (human 20S proteasome [1]; 1 mM peptide, 2.5 μg human 20S proteasome in 100 μl, 25 mM Tris, 0.25 mM EDTA pH 8.0, 37°C, 3 h, RP-HPLC C8, UV 223 nm, against control without 20S): No significant degradation |
| N=C(N)NCCC[C@H](NC(=O)CN)C(=O)N[C@@H](CCCCN)C(=O)N1Cc2ccccc2C[C@@H]1C(=O)N1[C@H](C(=O)N[C@@H](CCCNC(=N)N)C(=O)N[C@@H](CCC(N)=O)C(=O)N2Cc3ccccc3C[C@H]2C(=O)N2[C@@H](C(=O)N[C@@H](CCCNC(=N)N)C(=O)N3CCC[C@H]3C(=O)N[C@@H](CO)C(=O)O)C[C@H]3CCCC[C@H]32)C[C@@H]2CCCC[C@@H]21 [Tat1_4-5TO,8-9TOD] (H-GRK[dTic][Oic]RQ[Tic][dOic]RPS-OH) | 0.245 | 0.24 | Kd (human 20S proteasome [2]; read-out: Dissociation constants Kd calculated on the basis of the thermophoresis curves, 3 nM labeled 20S, 50 mM Tris/HCl, 0.5 mM EDTA pH 8.0, 0.005% SDS, 25°C, mean (±SD)): 8.38 µM |
| N=C(N)NCCC[C@H](NC(=O)CN)C(=O)N[C@@H](CCCCN)C(=O)N1Cc2ccccc2C[C@@H]1C(=O)N1[C@H](C(=O)N[C@@H](CCCNC(=N)N)C(=O)N[C@@H](CCC(N)=O)C(=O)N[C@@H](CCCNC(=N)N)C(=O)N[C@@H](CCCNC(=N)N)C(=O)N[C@@H](CCCNC(=N)N)C(=O)N2CCC[C@H]2C(=O)N[C@@H](CO)C(=O)O)C[C@@H]2CCCC[C@@H]21 [Tat1_4-5TO] (HELM PEPTIDE1{G.R.K.[O=C([C@H]1Cc2ccccc2CN1[*:1])[*:2]].[O=C([C@@H]1C[C@@H]2CCCC[C@@H]2N1[*:1])[*:2]].R.Q.R.R.R.P.S}$$$$V2.0) | 0.239 | 0.24 | EC50 (human 20S proteasome [2]; Repetition 1): 8730 ± 0.0212 nM; EC50 (human 20S proteasome [2]; Repetition 2): 9260 ± 0.0182 nM; EC50 (human 20S proteasome [2]; Repetition 3): 8730 ± 0.0265 nM; Kd (human 20S proteasome [2]; [6]): 8.91 µM |
| N=C(N)NCCC[C@H](NC(=O)CN)C(=O)N[C@@H](CCCCN)C(=O)N[C@@H](CCCCN)C(=O)N[C@@H](CCCNC(=N)N)C(=O)N[C@@H](CCCNC(=N)N)C(=O)N[C@@H](CCC(N)=O)C(=O)N1Cc2ccccc2C[C@H]1C(=O)N1[C@@H](C(=O)N[C@@H](CCCNC(=N)N)C(=O)N2CCC[C@H]2C(=O)N[C@@H](CO)C(=O)O)C[C@H]2CCCC[C@H]21 [Tat1_8-9TOD] | 0.122 | 0.12 | EC50 (human 20S proteasome [2]; Repetition 1): 8320 ± 0.0423 nM; EC50 (human 20S proteasome [2]; Repetition 2): 7550 ± 0.0388 nM; EC50 (human 20S proteasome [2]; Repetition 3): 8560 ± 0.0538 nM; Kd (human 20S proteasome [2]; [6]): 8.14 µM; IC50 lower than for counterpart with d-Tic,l-Oic unit (Tat1_8-9TO) (human 20S proteasome [3]; ChT-L activity): about 30% |
| N=C(N)NCCC[C@H](NC(=O)CN)C(=O)N[C@@H](CCCCN)C(=O)N[C@@H](CCCCN)C(=O)N[C@@H](CCCNC(=N)N)C(=O)N[C@@H](CCCNC(=N)N)C(=O)N[C@@H](CCC(N)=O)C(=O)N1Cc2ccccc2C[C@@H]1C(=O)N1[C@H](C(=O)N[C@@H](CCCNC(=N)N)C(=O)N2CCC[C@H]2C(=O)N[C@@H](CO)C(=O)O)C[C@@H]2CCCC[C@@H]21 [Tat1_8-9TO] | 0.17 | 0.17 | EC50 (human 20S proteasome [2]; Repetition 1): 8880 ± 0.0559 nM; EC50 (human 20S proteasome [2]; Repetition 2): 10800 ± 0.0559 nM; EC50 (human 20S proteasome [2]; Repetition 3): 11500 ± 0.0559 nM; Kd (human 20S proteasome [2]; [6]): 10.4 µM |
| GAAARRQRRRPS [Tat1_A2-4] | – | 0.45 | Increase of IC50 relative to Tat1 (human 20S proteasome [3]; ChT-L activity of SDS activated 20S proteasome): about two times higher |
| GRAAAAQRRRPS [Tat1_A3-6] | 4.24 | 4.24 | – |
| GRAAARQRRRPS [Tat1_A3-5] | 1.57 | 1.57 | – |
| GRAARRQRRRPS [Tat1_A3-4] | 0.245 | 0.24 | – |
| GRKAAAQRRRPS [Tat1_A4-6] | 1.72 | 1.72 | EC50 (human 20S proteasome [2]; Repetition 1): 12800 ± 0.155 nM; EC50 (human 20S proteasome [2]; Repetition 2): 10600 ± 0.0436 nM; EC50 (human 20S proteasome [2]; Repetition 3): 12000 ± 0.084 nM; Kd (human 20S proteasome [2]; Repetition2, read-out: Kd): 10.6 µM; Kd (human 20S proteasome [2]; [6]): 12.1 µM |
| GRKAARQAARPS [Tat1_A4-5,8–9] | – | 4.66 | Degradation by the 20S proteasome (human 20S proteasome [1]; pH 8): partially degraded by the proteasome; IC50 (human 20S proteasome [3]; [7]): 4.89 µM; IC50 (human 20S proteasome [3]; ChT-L activity, Repetition 2, read-out: Calculated IC50): 3.47 µM; IC50 (human 20S proteasome [3]; ChT-L activity, Repetition 3, read-out: Calculated IC50): 4.43 µM |
| GRKAARQRRRPS [Tat1_A4-5] | 0.264 | 0.26 | – |
| GRKKAAARRRPS [Tat1_A5-7] | 0.315 | 0.31 | – |
| GRKKAAQRRRPS [Tat1_A5-6] | 0.321 | 0.32 | – |
| GRKKARAAARPS [Tat1_A5,7–9] | 1.53 | 1.53 | – |
| GRKKRAAARRPS [Tat1_A6-8] | 0.342 | 0.34 | – |
| GRKKRRAAAAPS [Tat1_A7-10] | 2.79 | 2.79 | – |
| GRKKRRAAARPS [Tat1_A7-9] | 0.281 | 0.28 | – |
| GRKKRRQAAAPS [Tat1_A8-10] | 2.52 | 2.52 | EC50 (human 20S proteasome [2]; Repetition 1): 13800 ± 0.227 nM; EC50 (human 20S proteasome [2]; Repetition 2): 12800 ± 0.251 nM; EC50 (human 20S proteasome [2]; Repetition 3): 13800 ± 0.218 nM; Kd (human 20S proteasome [2]; [6]): 13.5 µM; IC50 (human 20S proteasome [3]; [7]): 1.99 µM |
| octa-arginine | – | – | IC50, proteasome peptidase activity in vitro (20S proteasome): high-nanomolar |
